# Experiments:
# [1] = system: IFNγ induced ICAM-1 (CD54) up-regulation in A549 lung epithelial cells (JAK/Stat pathway); test: A549 Epithelial Line Stimulated with IFNγ (ICAM-1 surface expression, flow cytometry); assay type: cell-based, human; conditions: Table III Example 5
# Outline: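 A549 cells (20,000/well, adhered overnight) pre-treated with compound 1 h, then IFNγ 75 ng/mL for 24 h; compound 30 μM–14 nM in 5% FBS, 0.3% DMSO. Surface ICAM-1 stained with APC anti-CD54, geometric mean by flow cytometry; dose-response gives EC50.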
# [2] = system: IFNγ induced ICAM-1 (CD54) up-regulation in U937 human monocytic cells (JAK/Stat pathway); test: U937 IFNγ ICAM1 FACS Assay; assay type: cell-based; conditions: Table III Example 6; 10 ng/mL IFNγ, 18-24 hours
# Outline: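 Flow cytometry gave ICAM-1 (CD54) up-regulation as ICAM-APC geometric mean within the live-cell gate, alongside % viable cells. Human monocytic U937 cells received 3-fold serial compound dilutions for 30 min at 37 °C, followed by IFNγ stimulation lasting 18–24 h. Dose curves yielded EC50s.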
SMILES,IC50 [1],IC50 [2]
"COCCNS(=O)(=O)c1cc(Nc2ncc(C)c(Nc3ccc(CNS(=O)(=O)C4CC4)cc3)n2)ccc1C [Compound I-190, N4-(4-cyclopropylsulfonylaminomethyl)phenyl-N2-[3-(2-methoxyethyl)aminosulfonyl-4-methyl]phenyl-5-methyl-2,4-pyrimidinediamine]",1.36 µM,0.187 µM
"COCCCNS(=O)(=O)c1cc(Nc2ncc(C)c(Nc3ccc(CNS(=O)(=O)C4CC4)cc3)n2)ccc1C [Compound I-191, N4-(4-cyclopropylsulfonylaminomethyl)phenyl-N2-[3-(3-methoxypropyl)aminosulfonyl-4-methyl]phenyl-5-methyl-2,4-pyrimidinediamine]",3.06 µM,0.247 µM
"Cc1ccc(Nc2ncc(C)c(Nc3ccc(CNS(=O)(=O)C4CC4)cc3)n2)cc1S(=O)(=O)NCC1CC1 [Compound I-192, N2-(3-cyclopropylmethylaminosulfonyl-4-methyl)phenyl-N4-(4-cyclopropylsulfonylaminomethyl)phenyl-5-methyl-2,4-pyrimidinediamine]",2.3 µM,0.26 µM
"Cc1ccc(Nc2ncc(C)c(Nc3ccc(CNS(=O)(=O)C4CC4)cc3)n2)cc1S(=O)(=O)NCc1ccccc1 [Compound I-195, N2-(3-benzylaminosulfonyl-4-methyl)phenyl-N4-(4-cyclopropylsulfonylaminomethyl)phenyl-5-methyl-2,4-pyrimidinediamine]",3.54 µM,0.23 µM
"Cc1ccc(Nc2ncc(C)c(Nc3ccc(CNS(=O)(=O)C4CC4)cc3)n2)cc1S(=O)(=O)Nc1ccccc1 [Compound I-202, N4-(4-cyclopropylsulfonylaminomethyl)phenyl-5-methyl-N2-(4-methyl-3-phenylaminosulfonyl)phenyl-2,4-pyrimidinediamine]",6.05 µM,0.482 µM
"CNS(=O)(=O)c1ccc(Nc2ncc(C)c(Nc3cccc(CNS(=O)(=O)C4CC4)c3)n2)cc1 [Compound I-207, N4-(3-cyclopropylsulfonylaminomethyl)phenyl-5-methyl-N2-(4-methylaminosulfonyl)phenyl-2,4-pyrimidinediamine]",6.11 µM,0.312 µM
"CCNS(=O)(=O)c1cccc(Nc2ncc(C)c(Nc3cccc(CNS(=O)(=O)C4CC4)c3)n2)c1 [Compound I-208, N4-(3-cyclopropylsulfonylaminomethyl)phenyl-N2-(3-ethylaminosulfonyl)phenyl-5-methyl-2,4-pyrimidinediamine]",1.3 µM,0.257 µM
"COCCNS(=O)(=O)c1cc(Nc2ncc(C)c(Nc3cccc(CNS(=O)(=O)C4CC4)c3)n2)ccc1C [Compound I-210, N4-(3-cyclopropylsulfonylaminomethyl)phenyl-N2-[3-(2-methoxyethyl)aminosulfonyl-4-methyl]phenyl-5-methyl-2,4-pyrimidinediamine]",2.47 µM,0.175 µM
"Cc1cnc(Nc2ccc(S(N)(=O)=O)cc2)nc1Nc1ccc2c(c1)CCN(S(=O)(=O)C1CC1)C2 [II-1, N2-(4-aminosulfonyl)phenyl-N4-[(N-cyclopropylsulfonyl)-1,2,3,4-tetrahydroisoquinolin-6-yl]-5-methyl-2,4-pyrimidinediamine]",18.3 µM,0.229 µM
"Cc1ccc(Nc2ncc(C)c(Nc3ccc4c(c3)CCN(S(=O)(=O)C3CC3)C4)n2)cc1S(N)(=O)=O [II-3, N2-(3-aminosulfonyl-4-methyl)phenyl-N4-[(N-cyclopropylsulfonyl)-1,2,3,4-tetrahydroisoquinolin-6-yl]-5-methyl-2,4-pyrimidinediamine]",12.4 µM,0.0879 µM
"Cc1cnc(Nc2cccc(S(N)(=O)=O)c2)nc1Nc1ccc2c(c1)CN(S(=O)(=O)C1CC1)C2 [II-8, N2-(3-Aminosulfonyl-phenyl)-N4-[(2-cyclopropylsulfonyl)-isoindolin-5-yl]-5-methyl-2,4-pyrimidinediamine]",17.8 µM,0.775 µM
